Source: patent publication US20090215760A1, “SYNERGISTIC INSECTICIDE MIXTURES” (priority 2004, published 2009)

Experiments:
Assay type in all cases: in vivo
Myzus persicae = Myzus persicae test, cabbage leaf dip; conditions: single active compound
Excerpt: (§1) The action expected for a given combination of two active components can be calculated as follows (cf. Colby, S. R., “Calculating Synergistic and Antagonistic Responses of Herbicide Combinations”, Weeds 15, pages 20-22, 1967):
(§2) if • X stands for the death rate expressed as % of the untreated controls on application of active component A at an applied amount of m ppm • Y for the death rate expressed as % of the untreated controls on application of active component B at an applied amount of n ppm • E for the death rate expressed as % of the untreated controls on application of active components A and B at applied amount of m and n ppm • then
(§3) If the actual insecticidal death rate is greater than calculated, the combination is superadditive in its death rate, i.e. there is a synergistic effect. In this case the death rate actually observed must be greater than the value for the expected death rate (E) calculated from the above equation.
(§4) To prepare a suitable formulation of the active material 1 part by weight of the active material is mixed with the given amounts of solvent and emulsifier and the concentrate is diluted to the desired concentration with water containing the emulsifier.
Cabbage leaves (Brassica oleracea) which are highly infected by the green peach aphid (Myzus persicae) are treated by dipping into the active mixture formulation of the desired concentration.
After the desired time the death rate is calculated as %, where 100% means that all aphids were killed, 0% that no aphids were killed. The death rates were calculated by the Colby equation.

[1] = tested on: Plutella xylostella, normal sensitive strain; assay: Plutella xylostella test (normal sensitive strain), cabbage leaf dip; conditions: single active compound
Excerpt: as §1, §2, §3
Plutella xylostella Test (Normal Sensitive Strain)
as §4
Cabbage leaves (Brassica oleracea) are treated by dipping into the active mixture formulation at the desired concentration and infected with the caterpillar of the diamondback (cabbage) moth (Plutella xylostella, normal sensitive strain) while the leaves are still moist.
(§5) After the desired time the death rate is calculated as %, where 100% means that all caterpillars were killed, 0% that no caterpillars were killed. The death rates are calculated by the Colby equation.

Spodoptera frugiperda = Spodoptera frugiperda test, cabbage leaf dip; conditions: 4 ppm, single active compound
Excerpt: as §1, §2, §3
Spodoptera frugiperda Test […]
as §5

[2] = 4 ppm, 6 d (Table B, clothianidin series)

Q: `CN/C(=N\[N+](=O)[O-])NCc1cnc(Cl)s1` [Clothianidin] was tested. Which “Death rate in % after 6 d” value (Myzus persicae; [2]) did it give?
A: 0%

Q: And the “Death rate in % after 6 d” value ([1]; 4 ppm)?
A: 10%

Q: For `CC[S+]([O-])c1c(C#N)nn(-c2c(Cl)cc(C(F)(F)F)cc2Cl)c1N` (stereo not drawn) [Ethiprole, ethiprole], which “Death rate in % after 6 d” value (Myzus persicae; 0.8 ppm, 6 d (Table B, imidacloprid series)) is on record?
A: 0%

Q: And the “Death rate in % after 6 d” value (Myzus persicae; [2])?
A: 0%

Q: And the “Death rate in % after 6 d” value (Myzus persicae; 4 ppm, 6 d (Table B, thiacloprid series))?
A: 10%

Q: And the “Death rate in % after 6 d” value (Spodoptera frugiperda)?
A: 0%

Q: And the “Death rate in % after 6 d” value ([1]; 4 ppm)?
A: 0%

Q: And the “Death rate in % after 4 d” value ([1]; 20 ppm)?
A: 35%

Q: How did the “Death rate in % after 6 d” value (Myzus persicae; 0.16 ppm, 6 d (Table B, imidacloprid series)) turn out when `O=[N+]([O-])/N=C1\NCCN1Cc1ccc(Cl)nc1` [Imidacloprid] was run?
A: 0%

Q: What about the “Death rate in % after 6 d” value (Spodoptera frugiperda) of the same molecule?
A: 15%

Q: With `N#C/N=C1\SCCN1Cc1ccc(Cl)nc1` [Thiacloprid] as the molecule, how does the “Death rate in % after 6 d” value (Myzus persicae; 0.8 ppm, 6 d (Table B, thiacloprid series)) read?
A: 15%

Q: And the “Death rate in % after 4 d” value ([1]; 4 ppm)?
A: 0%
